Columns and labels:
[1] = tested on: MV-4-11 cells; test: Cell viability / growth inhibition (EZ-Cytox), MV-4-11; format: cell-based, human; conditions: for GI50: Homo sapiens, MV4-11, 72 h
Experimental: The cultured cells were incubated at 37°C with 5% CO2. Cell viability was assessed with a tetrazolium-based assay using the EZ-Cytox Cell Viability Assay kit (DaeilLab, Korea). Briefly, 2,000 ∼ 15,000 cells were plated in 96-well flat bottom plates in 100 µl of medium. The next day, the cells were treated with compounds along with dimethyl sulfoxide (DMSO, Fisher, Waltham, MA, USA) as a negative control. […] After incubation, the optical density (OD) was measured at a wavelength of 450 nm with a Victor multilabel reader (Perkin Elmer, Waltham, MA, USA).

[2] = tested on: MCF-7 cells; test: Cell viability / growth inhibition (EZ-Cytox), MCF-7; format: cell-based; conditions: Homo sapiens, MCF7; Table 2, 72 h
Experimental: MV-4-11 human acute myeloid leukemia cells were purchased from the American Type Culture Collection (ATCC, Rockville, MD, USA, CRL-9591), and the cells were cultured in IMDM medium (Sigma Co., St. Louis, MO, USA) supplemented with 10% fetal bovine serum, 1% penicillin/streptomycin and 4 mM L-glutamine (Life Technology, Grand Island, NY). Jurkat (human acute T lymphocytic leukemia, ATCC TIB-152) and K562 (human chronic myelogenous leukemia, ATCC CCL-243) cells were cultured in RPMI-1640 (Sigma Co.), and MCF7 (human breast adenocarcinoma, ATCC HTB-22) and PC-3 (human prostate adenocarcinoma, ATCC CRL-1435) cells were cultured in DMEM (Sigma Co.) medium supplemented with 10% fetal bovine serum and 1% penicillin/streptomycin. The cultured cells were incubated at 37°C with 5% CO2. Cell viability was assessed with a tetrazolium-based assay using the EZ-Cytox Cell Viability Assay kit (DaeilLab, Korea). Briefly, 2,000 ∼ 15,000 cells were plated in 96-well flat bottom plates in 100 µl of medium. The next day, the cells were treated with compounds along with dimethyl sulfoxide (DMSO, Fisher, Waltham, MA, USA) as a negative control. […] After incubation, the optical density (OD) was measured at a wavelength of 450 nm with a Victor multilabel reader (Perkin Elmer, Waltham, MA, USA). The IC50 was calculated with nonlinear regression using Prism version 5.01 (GraphPad, La Jolla, CA, USA).

[3] = target: T1, JAK3 (Homo sapiens, UniProt P52333); test: In vitro JAK3 kinase assay (HTRF); format: biochemical; conditions: mean ± S.D.
T1 sequence (P52333 1-1124): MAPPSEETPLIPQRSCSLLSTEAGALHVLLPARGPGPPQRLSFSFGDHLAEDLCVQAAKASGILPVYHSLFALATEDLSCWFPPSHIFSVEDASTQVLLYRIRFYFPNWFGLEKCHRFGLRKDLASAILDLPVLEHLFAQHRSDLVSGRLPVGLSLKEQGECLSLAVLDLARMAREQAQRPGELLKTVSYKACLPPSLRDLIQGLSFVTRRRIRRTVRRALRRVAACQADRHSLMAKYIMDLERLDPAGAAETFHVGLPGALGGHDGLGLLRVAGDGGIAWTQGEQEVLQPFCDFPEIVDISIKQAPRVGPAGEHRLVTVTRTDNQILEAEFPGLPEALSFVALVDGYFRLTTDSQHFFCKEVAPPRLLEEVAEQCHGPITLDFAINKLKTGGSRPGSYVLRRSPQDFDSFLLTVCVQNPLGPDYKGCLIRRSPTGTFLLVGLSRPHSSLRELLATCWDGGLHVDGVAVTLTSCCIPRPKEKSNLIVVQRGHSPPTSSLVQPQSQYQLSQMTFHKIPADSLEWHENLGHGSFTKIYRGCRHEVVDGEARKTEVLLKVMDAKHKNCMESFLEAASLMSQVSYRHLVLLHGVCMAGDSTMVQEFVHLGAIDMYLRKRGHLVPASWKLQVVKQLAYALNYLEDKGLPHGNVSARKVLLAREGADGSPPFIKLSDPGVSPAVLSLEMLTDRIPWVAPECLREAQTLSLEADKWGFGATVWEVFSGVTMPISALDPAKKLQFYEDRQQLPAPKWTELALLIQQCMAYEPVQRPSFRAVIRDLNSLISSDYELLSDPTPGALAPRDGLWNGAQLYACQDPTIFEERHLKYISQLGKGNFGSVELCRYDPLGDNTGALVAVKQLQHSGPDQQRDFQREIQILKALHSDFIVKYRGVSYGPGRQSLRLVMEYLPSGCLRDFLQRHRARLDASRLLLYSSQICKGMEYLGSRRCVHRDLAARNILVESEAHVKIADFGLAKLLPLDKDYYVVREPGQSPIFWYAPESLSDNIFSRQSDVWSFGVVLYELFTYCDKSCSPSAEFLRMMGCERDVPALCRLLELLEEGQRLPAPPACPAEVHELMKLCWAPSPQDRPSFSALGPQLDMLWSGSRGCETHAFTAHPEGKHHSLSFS
Experimental: The inhibition of the FLT3 kinase activity was measured with homogeneous, time-resolved fluorescence (HTRF) assays. Recombinant proteins containing the FLT3 kinase domain were purchased from Carna biosciences (Japan). Optimal enzyme, ATP, and substrate concentrations were established with the HTRF KinEASE kit (Cisbio, France) according to the manufacturer’s instructions. The FLT3 enzymes were mixed with serially diluted compounds and peptide substrates in a kinase reaction buffer (50 mM HEPES (pH 7.0), 500 μM ATP, 0.1 mM sodium orthovanadate, 5 mM MgCl2, 1 mM DTT, 0.01% bovine serum albumin (BSA), and 0.02% NaN3). After the addition of the reagents for detection, the TR-FRET signal was measured with a Victor multilabel reader (Perkin Elmer, Waltham, MA, USA). The IC50 was calculated with nonlinear regression using Prism version 5.01 (GraphPad). JAK2, JAK3, cMET, and RET in vitro kinase assays were also carried out using the HTRF assay kit.

With `COC(=O)c1ccc2c(c1)/C(=C1/Nc3ccccc3/C1=N\OCCN1CCNCC1)C(=O)N2.Cl.Cl` [LDD1937, methyl (2Z,3E)-2′-oxo-3-((2-(piperazin-1-yl)ethoxy)imino)-[2,3′-biindolinylidene]-5′-carboxylate dihydrochloride] the “enhancement of MV-4-11 activity compared to the initial compound 1” value [1] was 40 fold, the GI50 ([1]; 72 h, called IC50 in supplementary text) was 1 ± 0.15 nM and the GI50 ([1]; Table 2, 72 h, mean ± S.D.) was 1.2 ± 0.2 nM. The GI50 [2] was 2140 ± 160 nM and the IC50 [3] was 690 ± 59.9 nM.
